Values of other authors as cited in US6642378B1, “Process for the synthesis of beta-lactam derivatives” (Antibioticos S.p.A., priority 1999, dated 2003).
Where two headings read alike, the source gives them in different places.

Assays:
[1] = data from MSDS (Material Safety Data Sheet)—OHS
[2] = oral, data from MSDS (Material Safety Data Sheet)—OHS

Row | Structure (SMILES) | Flash point [1] [°C] | oral DL50 rat (rat; [2]) [mg/kg] | oral DL50 rat (rat; in vivo, po) [mg/kg]
1 | CC(C)=O [Acetone] | −18.0 | 5800 | 
2 | CCOC(=O)OCC [Diethylcarbonate] | 33.0 |  | 15000
3 | COC(=O)OC [Dimethylcarbonate] | 21.7 |  | 13000
4 | CCOC(C)=O [Ethyl acetate] | −4.0 | 5620 | 
5 | COC(C)=O [Methyl acetate] | −10.0 |  | 5480
6 | C1CCOC1 [Tetrahydrofuran] | −17.2 | 2816 | 
